“Also recorded” adds a separate entry of the source. Read-outs that look alike come from different tables or passages of the source. Square brackets hold non-standard residues; d marks the D form. Peptide text beside a SMILES is read from it. Nle = CCCC[C@H](N)C(=O)O; βAla = NCCC(=O)O
Tests used:
[1] = biological target: T1, Bombesin BB3 (Homo sapiens, UniProt P32247); experiment: Bombesin BB3 radioligand binding; settings: batch 147476; read-out: Concurrent IC50 (reference compound)
T1 construct: expressed in transfected cells; host or cells: Balb 3T3 cells
T1 sequence (P32247 1-399): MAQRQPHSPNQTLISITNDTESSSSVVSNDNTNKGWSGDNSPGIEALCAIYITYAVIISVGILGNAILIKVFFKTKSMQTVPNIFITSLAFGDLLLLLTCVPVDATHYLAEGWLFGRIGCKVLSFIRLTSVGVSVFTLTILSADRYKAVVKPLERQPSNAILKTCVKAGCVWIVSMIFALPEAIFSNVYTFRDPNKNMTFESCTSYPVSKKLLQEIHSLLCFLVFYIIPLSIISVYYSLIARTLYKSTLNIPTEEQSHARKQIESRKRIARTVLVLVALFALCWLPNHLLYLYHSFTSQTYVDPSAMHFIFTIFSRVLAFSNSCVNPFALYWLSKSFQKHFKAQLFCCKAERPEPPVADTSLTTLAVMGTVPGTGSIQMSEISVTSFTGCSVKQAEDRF
Protocol: The effects of juice from Morinda Citrifolia (noni) on metabolic rate were analyzed by analyzing the bombesin response. “TNJ” refers to Morinda citrifolia juice processed according to this invention and commericially available as […] NONI® juice, “Sample #100” is a Noni concentrate and “TNCMP1” refers to Morinda citrifolia evaporative concentrate. The percentage of concentration represents the concentration strength of the particular concentrate tested; that is, the strength of concentration relative to the Morinda citrifolia fruit juice from which the concentrate was obtained.
The following materials and methods were utilized in the Bombesin research.

[2] = biological target: T1, Bombesin BB3; settings: historical value, cited from earlier work
[3] = biological target: Adrenergic β1 (Homo sapiens, UniProt P08588); settings: ephedrine, from research studies; cited from earlier work
Sequence of Adrenergic β1 (P08588 whole entry): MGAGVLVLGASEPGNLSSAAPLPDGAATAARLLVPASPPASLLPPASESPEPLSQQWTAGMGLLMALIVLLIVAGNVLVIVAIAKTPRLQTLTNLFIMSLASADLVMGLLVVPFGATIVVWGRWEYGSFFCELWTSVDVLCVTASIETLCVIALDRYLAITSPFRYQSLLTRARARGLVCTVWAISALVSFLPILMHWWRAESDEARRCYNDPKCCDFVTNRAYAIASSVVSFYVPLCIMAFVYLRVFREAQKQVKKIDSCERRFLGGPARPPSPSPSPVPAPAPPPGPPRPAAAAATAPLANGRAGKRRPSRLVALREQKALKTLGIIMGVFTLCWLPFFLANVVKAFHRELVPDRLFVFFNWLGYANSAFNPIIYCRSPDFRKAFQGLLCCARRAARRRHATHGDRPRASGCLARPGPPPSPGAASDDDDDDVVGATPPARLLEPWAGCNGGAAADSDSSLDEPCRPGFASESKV

[4] = biological target: Adrenergic β2 (Homo sapiens, UniProt P07550); settings: ephedrine, from research studies; cited from earlier work
Sequence of Adrenergic β2 (P07550 whole entry): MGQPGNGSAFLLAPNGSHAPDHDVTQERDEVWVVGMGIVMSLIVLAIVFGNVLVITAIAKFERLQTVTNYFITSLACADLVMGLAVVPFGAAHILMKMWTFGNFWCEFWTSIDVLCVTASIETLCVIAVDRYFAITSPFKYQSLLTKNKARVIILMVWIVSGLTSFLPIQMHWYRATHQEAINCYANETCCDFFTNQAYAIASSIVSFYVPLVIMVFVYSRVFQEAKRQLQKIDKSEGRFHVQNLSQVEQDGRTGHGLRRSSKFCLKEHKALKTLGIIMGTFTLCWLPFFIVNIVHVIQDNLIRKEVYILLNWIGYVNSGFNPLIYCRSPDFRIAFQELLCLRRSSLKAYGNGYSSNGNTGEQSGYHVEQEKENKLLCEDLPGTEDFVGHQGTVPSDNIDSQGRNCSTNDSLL

[5] = biological target: Adrenergic β3 (Homo sapiens, UniProt P13945); settings: ephedrine, from research studies; cited from earlier work
Sequence of Adrenergic β3 (P13945 whole entry): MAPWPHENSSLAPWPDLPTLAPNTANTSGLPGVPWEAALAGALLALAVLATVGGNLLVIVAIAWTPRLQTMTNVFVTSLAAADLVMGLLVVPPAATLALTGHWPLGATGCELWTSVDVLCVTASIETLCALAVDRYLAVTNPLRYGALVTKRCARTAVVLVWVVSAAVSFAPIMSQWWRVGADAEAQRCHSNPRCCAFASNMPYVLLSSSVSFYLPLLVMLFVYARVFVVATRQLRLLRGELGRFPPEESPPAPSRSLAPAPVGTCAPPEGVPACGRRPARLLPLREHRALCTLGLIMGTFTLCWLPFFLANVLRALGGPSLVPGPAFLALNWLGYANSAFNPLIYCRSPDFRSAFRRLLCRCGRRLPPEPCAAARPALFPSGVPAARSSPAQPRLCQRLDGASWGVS

[6] = biological target: Bombesin BB1 (Homo sapiens, UniProt P28336); settings: historical value, Hill coefficient; cited from earlier work
Sequence of Bombesin BB1 (P28336 whole entry): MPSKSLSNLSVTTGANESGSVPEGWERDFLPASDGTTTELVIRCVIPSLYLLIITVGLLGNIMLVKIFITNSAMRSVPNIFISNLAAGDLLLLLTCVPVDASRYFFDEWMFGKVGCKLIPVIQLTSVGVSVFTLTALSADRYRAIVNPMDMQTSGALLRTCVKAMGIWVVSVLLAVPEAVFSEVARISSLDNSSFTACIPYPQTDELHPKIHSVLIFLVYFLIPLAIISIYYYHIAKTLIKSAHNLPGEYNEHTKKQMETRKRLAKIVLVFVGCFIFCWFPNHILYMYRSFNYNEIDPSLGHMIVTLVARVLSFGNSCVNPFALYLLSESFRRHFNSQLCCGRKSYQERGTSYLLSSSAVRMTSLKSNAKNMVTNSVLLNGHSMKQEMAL

[7] = biological target: Somatostatin sst5 (Homo sapiens, UniProt P35346); settings: historical value, Hill coefficient; cited from earlier work
Sequence of Somatostatin sst5 (P35346 whole entry): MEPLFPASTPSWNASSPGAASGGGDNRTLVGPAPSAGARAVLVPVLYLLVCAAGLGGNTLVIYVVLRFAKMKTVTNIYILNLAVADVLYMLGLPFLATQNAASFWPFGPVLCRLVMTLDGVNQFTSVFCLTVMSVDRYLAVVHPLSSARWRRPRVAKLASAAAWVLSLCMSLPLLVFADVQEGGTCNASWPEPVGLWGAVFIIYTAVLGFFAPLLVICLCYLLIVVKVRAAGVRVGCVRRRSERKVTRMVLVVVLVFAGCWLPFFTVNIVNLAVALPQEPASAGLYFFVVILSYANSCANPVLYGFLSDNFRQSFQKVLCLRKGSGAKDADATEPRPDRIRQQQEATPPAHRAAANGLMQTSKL

For `CCCC[C@H](NC(=O)[C@H](Cc1ccccc1)NC(=O)[C@H](Cc1c[nH]cn1)NC(=O)CCNC(=O)[C@@H](NC(=O)[C@H](C)NC(=O)[C@H](Cc1c[nH]c2ccccc12)NC(=O)[C@H](CCC(N)=O)NC(=O)[C@H](N)Cc1ccccc1)C(C)C)C(N)=O` [(D-Phe^6, β-Ala^11, Phe^13, Nle^14)-BN (6-14)] (H-[dF]QWAV[βAla]HF[Nle]-NH2; N-terminus and C-terminus assumed), which IC50 [1] is on record?
The IC50 was 5.99 nM.

What about the “Historical nH (reference compound)” value ([2]; Hill coefficient) of the same compound?
The value was 0.9.

And the IC50 ([2]; read-out: Historical IC50 (reference compound))?
The IC50 was 6.1 nM.

What about the Ki ([2]; read-out: Historical Ki (reference compound)) of the same compound?
The Ki was 4.1 nM.

Which “adrenergic β-1 response (agonist/antagonist)” value [3] does the source give for `CN[C@@H](C)[C@H](O)c1ccccc1` [ephedrine] here?
The value was “inhibits; also recorded: antagonist”.

And the “adrenergic β-2 response (agonist/antagonist)” value [4]?
The value was “inhibits; also recorded: antagonist”.

What about the “adrenergic β-3 response (agonist/antagonist)” value [5] of the same compound?
Its value is “activating; also recorded: agonist”.

For Neuromedin B, which “Historical nH (reference compound)” value [6] is on record?
The value was 0.9.

With Somatostatin-14 as the compound, how does the “Historical nH (reference compound; no head)” value [7] read?
The value was 0.8.
